Experimental findings from patent publication US9956144B2, “Process for particle processing of active pharmaceutical ingredients” (HOVIONE INTER LIMITED, priority 2010, dated 2018) are described below.

The nature of the first data set: Detection of the anhydrous form by near infrared spectroscopy. The data set is classed as physicochemical. The note with it: after HPC followed by spray drying.
For `C[C@@H]1C[C@H]2[C@@H]3CCC4=CC(=O)C=C[C@]4(C)[C@@]3(Cl)[C@@H](O)C[C@]2(C)[C@@]1(OC(=O)c1ccco1)C(=O)CCl` [Mometasone furoate monohydrate], the anhydrous form result is on record as “not detected”.

The nature of a further data set: TGA of the isolated product. It counts as physicochemical. To be noted: after HPC followed by spray drying.
Take `C[C@@H]1C[C@H]2[C@@H]3CCC4=CC(=O)C=C[C@]4(C)[C@@]3(Cl)[C@@H](O)C[C@]2(C)[C@@]1(OC(=O)c1ccco1)C(=O)CCl` [Mometasone furoate monohydrate]: the TGA value is 3.0%.

The next data set can be described thus: Amorphous content determined by dynamic vapour sorption (DVS). The data set is classed as physicochemical. The note with it: after HPC followed by spray drying.
For the molecule `C[C@@H]1C[C@H]2[C@@H]3CCC4=CC(=O)C=C[C@]4(C)[C@@]3(Cl)[C@@H](O)C[C@]2(C)[C@@]1(OC(=O)c1ccco1)C(=O)CCl` [Mometasone furoate monohydrate], the amorphous content entry is on record as “below 1.1%”.

A short description of the next data set: XRPD of the isolated product (polymorphic form after HPC and spray drying). It counts as physicochemical. To be noted: after HPC followed by spray drying.
Turning to `C[C@@H]1C[C@H]2[C@@H]3CCC4=CC(=O)C=C[C@]4(C)[C@@]3(Cl)[C@@H](O)C[C@]2(C)[C@@]1(OC(=O)c1ccco1)C(=O)CCl` [Mometasone furoate monohydrate], the “XRPD of the product isolated (polymorphic form retained)” value (“XRPD of the product isolated” below) is on record as “substantially the same as claimed in U.S. Pat. No. 6,180,781B1”.

With `OCc1cc(C(O)CNCCCCCCOCCCCc2ccccc2)ccc1O` (stereo not drawn) [Salmeterol xinafoate], the “XRPD of the product isolated” value is given as “substantially the same as the starting material”.

Consider `CCC(=O)O[C@]1(C(=O)SCF)[C@H](C)C[C@H]2[C@@H]3C[C@H](F)C4=CC(=O)C=C[C@]4(C)[C@@]3(F)[C@@H](O)C[C@@]21C` [Fluticasone propionate], for which the “XRPD of the product isolated” value was “substantially the same as the starting material”.

For the molecule `C[C@@H]1C[C@H]2[C@@H]3C[C@H](F)C4=CC(=O)C=C[C@]4(C)[C@@]3(F)[C@@H](O)C[C@]2(C)[C@@]1(OC(=O)c1ccco1)C(=O)SCF` [Fluticasone furoate], the “XRPD of the product isolated” value is recorded as “substantially the same as the starting material”.

A short description of a further data set: Particle size distribution of the powder produced by high pressure cavitation (HPC) and spray drying. The data set is classed as physicochemical. The note with it: dry powder after HPC followed by spray drying. The source says: The suspension may be passed through a high pressure cavitation apparatus several times until the desired particle size and size distribution is achieved. […] The recirculation may, for example, be performed from 2-30 times (or cycles) depending upon the API. Preferred cycle ranges include from 5 to 25 and 15 to 25. […] As will be clear to those in the art, span is defined by the ratio ((Dv90−Dv10)/Dv50), with Dv being the diameter value at which a defined percentage of the particles (eg 10%, 50% or 90% in the equation) have a diameter equal to or less than the Dv value.
In the case of `C[C@@H]1C[C@H]2[C@@H]3CCC4=CC(=O)C=C[C@]4(C)[C@@]3(Cl)[C@@H](O)C[C@]2(C)[C@@]1(OC(=O)c1ccco1)C(=O)CCl` [Mometasone furoate monohydrate], the Dv10 came to 1.91 μm, the Dv50 was 3.97 μm, the Dv90 is reported as 7.47 μm and the “span ((Dv90−Dv10)/Dv50)” value came out at 1.4.

As to `OCc1cc(C(O)CNCCCCCCOCCCCc2ccccc2)ccc1O` (stereo not drawn) [Salmeterol xinafoate], the Dv10 is reported as 0.33 μm, the Dv50 stood at 1.37 μm, the Dv90 was found to be 3.09 μm and the “span ((Dv90−Dv10)/Dv50)” value was found to be 2.0.

With `CCC(=O)O[C@]1(C(=O)SCF)[C@H](C)C[C@H]2[C@@H]3C[C@H](F)C4=CC(=O)C=C[C@]4(C)[C@@]3(F)[C@@H](O)C[C@@]21C` [Fluticasone propionate], the Dv10 is listed as 1.20 μm, the Dv50 is given as 2.45 μm, the Dv90 stood at 4.68 μm and the “span ((Dv90−Dv10)/Dv50)” value was determined as 1.4.

In the case of `C[C@@H]1C[C@H]2[C@@H]3C[C@H](F)C4=CC(=O)C=C[C@]4(C)[C@@]3(F)[C@@H](O)C[C@]2(C)[C@@]1(OC(=O)c1ccco1)C(=O)SCF` [Fluticasone furoate], the Dv10 amounted to 0.89 μm, the Dv50 stood at 1.95 μm, the Dv90 worked out at 3.78 μm and the “span ((Dv90−Dv10)/Dv50)” value is 1.5.

Consider `C[N+]1(C)[C@@H]2C[C@@H](OC(=O)C(O)(c3cccs3)c3cccs3)C[C@H]1[C@@H]1O[C@@H]12` [Tiotropium bromide], for which the Dv10 came out at 0.74 μm, the Dv50 was 2.90 μm, the Dv90 is listed as 5.58 μm and the “span ((Dv90−Dv10)/Dv50)” value came out at 1.7.
